Data reported in patent US20140289906A1, “Compositions Having Dicamba Decarboxylase Activity and Methods of Use” (priority 2013, published 2014).

Test system: Arabidopsis ecotype Columbia (Col-0)
Experiment: Arabidopsis root growth inhibition assay
Conditions: 6 days
Procedure: Phytotoxicity of other major dicamba decarboxylaed products was evaluated using Arabidopsis root growth inhibition assay. 4-chloro-3-methoxy phenol was purchased from Biogene Organics, Inc. (catalog number U06-642-79). 2,5-dichloro phenol was purchased from Sigma-Aldrich (catalog number D70007). Briefly, seeds of Arabidopsis ecotype Columbia (Col-0) were surface sterilized with 70% (v/v) ethanol for 5 minutes and 10% (v/v) bleach for 15 minutes. After being washed three times with distilled water, the seeds were germinated on 1× Murashige and Skoog (MS) medium with a pH of 5.7, 3% (w/v) sucrose, and 0.8% (w/v) agar. After incubation for 3.5 days, the seedlings were transferred to 1×MS medium containing B5 vitamin, 3% (w/v) sucrose, 1.2% (w/v) agar, and filter sterilized compounds was added to the media at 60° C. The concentrations of compounds including dicamba were 0 μM, 1.0 μM, and 10 μM. The seedlings were placed vertically, and the temperature maintained at 23° C. to allow root growth along the surface of the agar, with a photoperiod of 16 h of light and 8 h of dark.

Q: What does the source list for `Oc1cc(Cl)ccc1Cl` [2,5-dichloro phenol]?
A: Arabidopsis root growth (1.0 uM in MS medium): did not have any effect; Arabidopsis root growth (10 uM in MS medium): did not have any effect
